The text below walks through data of patent US5219872A, “Compounds of 1,2,5,6-tetrahydropyridin-3-carboxaldehyde oxime which are useful as cholinergic agents” (Roussel UCLAF, priority 1986, dated 1993).

Each structure is given as a SMILES string. Where a name gives a salt, the structure may show the parent alone. Read-outs that look alike come from different tables or passages of the source. Some results are limits rather than exact numbers.

The nature of data set [1]: Duration of action: variations of the body temperature. In kind it is in vivo, mouse. To be noted: dose mg/kg: Example 3 0,15, 7 1,25.
Description: (§1) Male mice (CD1 Charles Rivers) were used, weighing 25-30 g, fasting for 6 hours. The body temperature was noted by means of a thermo-couple, inserted in the rectum for about 1.5 cm and connected to an electric temperature indicator.
(§2) The degree of hypothermia was evaluated as the difference between the treated and the control animals, and the dose was determined which was necessary to reduce the body temperature by 1° C.
The duration of action of the products was evaluated using doses of equal ability to cause a reduction of body temperature of 1°-1,5° C.
A further data set can be described thus: Diarrhoea activity. To be noted: rat, in vivo, po.
Data set [2] can be described thus: Hypothermic activity (central cholinomimetic activity). In kind it is in vivo. The settings on record: Mus musculus, read-out: Effective dose (-1° C.).
Description: as §1, §2
For data set [3] the following is noted: cited from earlier work.
In data set [4] the test system is patients having a memory defect. The settings on record: intravenous route; Sitaram 1978, Christie 1981; cited from earlier work.
Data set [5] deals with isolated ileum from guinea-pigs. The data set can be described thus: Isolated guinea-pig ileum: contracting (agonist) activity. To be noted: Cavia porcellus, read-out: pD2 (negative logarithm of the dose which produces 50% of the maximum effect) (converted).
Description: Sections of ileum were removed from guinea-pigs killed by decapitation. […] The contracting effect of the compounds was detected, with an isometric transducer connected to a recorder. The products under test were added at scalar concentrations between 1×10^-3 and 1×10^-8 moles.
The agonist activity was expressed in pD2 (negative logarithm of the dose which produces 50% of the maximum effect.)
Data set [6] concerns isolated ileum from guinea-pigs (response induced with acetylcholine). The experiment in a line: Isolated guinea-pig ileum: antagonist activity against acetylcholine. The settings on record: Cavia porcellus; antagonist activity vs acetylcholine; Tyrode's solution 37° C.; products added between 1×10^-3 and 1×10^-8 moles; read-out: ED50 (dose inhibiting 50% of the maximum response induced with acetylcholine). The protocol: ILEUM FROM GUINEA-PIGS Sections of ileum were removed from guinea-pigs killed by decapitation. The isolated ileum was suspended in a bath containing 10 ml of Tyrode's solution thermo-regulated at 37° C. and aerated with a mixture of O2 (95%) and CO2 (5%). The contracting effect of the compounds was detected, with an isometric transducer connected to a recorder. The products under test were added at scalar concentrations between 1×10^-3 and 1×10^-8 moles. The products endowed with contracting activity were checked against atropine or hexamethonium to establish whether the activity was of muscarine type or nicotine type. The possible antagonist activity of the products was tested against acetylcholine.

The nature of a further data set: in vivo. The settings on record: rat, oral route, male rats CD1, fasting 16 hours, mortality in seven days. The protocol:
Male rats (CD1 Charles Rivers) were used, weighing […], fasting for 16 hours. […] The mortality was checked in the seven days following the treatment.

Where [7] appears, read: os, 0 minutes, 8 0,5, 10 0,5, arecoline HBr 200.
[8] abbreviates: os, 30 minutes, 8 0,5, 10 0,5, arecoline HBr 200, ** p < 0,01 vs controls (all values).
[9] abbreviates: os, 60 minutes, 8 0,5, 10 0,5, arecoline HBr 200, ** p < 0,01 vs controls (all values).
Where [10] appears, read: os, 120 minutes, 8 0,5, 10 0,5, arecoline HBr 200, ** p < 0,01 for Example 7 only.
[11] abbreviates: os, 180 minutes, 8 0,5, 10 0,5, arecoline HBr 200.
Where [12] appears, read: sc, 30 minutes, 8 1, 10 0,75, arecoline HBr 3,5, ** p < 0,01 vs controls (all values).
[13] abbreviates: sc, 60 minutes, 8 1, 10 0,75, arecoline HBr 3,5, ** p < 0,01 for Examples 3, 7, 8, 10.
Where [14] appears, read: sc, 120 minutes, 8 1, 10 0,75, arecoline HBr 3,5, ** p < 0,01 for Example 7 only.
Where [15] appears, read: sc, 180 minutes, 8 1, 10 0,75, arecoline HBr 3,5.
[16] abbreviates: agonist activity, Tyrode's solution 37° C.
The mark [17] stands for this setting: sc, sub-cutaneous, dose to reduce the body temperature by 1° C.
[18] abbreviates: oral, dose to reduce the body temperature by 1° C.

Description for Diarrhoea activity: Male rats (CD1 Charles Rivers) were used, weighing 25-30 g, fasting for 6 hours. The compounds were administered by oral route, by means of an oesophagic probe, dissolved at 0.5% in methocel. The controls received only the vehicle (20 ml/Kg).
1: faeces moderately soft with or without formation of a halo of humidity
2: faeces moderately soft with formation of a well defined circle of humidity,
3: faeces soft, with formation of a large circle of humidity,
4: faeces without consistency with formation of a very large circle of humidity.

As to `COC(=O)C1=CCCN(C)C1` [Arecoline HBr, reference compound], the “variation of the body temperature” value in data set [1] (setting [7]) was “+0,1 °C”; in data set [1] (setting [8]), -1,1 °C; in data set [1] (setting [9]), -1,0 °C; in data set [1] (setting [10]) it was -0,2 °C; in data set [1] (setting [11]) it was -0,1 °C; in data set [1] (sc, 0 minutes, 8 1, 10 0,75, arecoline HBr 3,5), -0,1 °C. The “variation of the body temperature” value was -1,5 °C in data set [1] (setting [12]), -0,1 °C in data set [1] (setting [13]), “+0,2 °C” in data set [1] (setting [14]) and “+0,2 °C” in data set [1] (setting [15]). In “Diarrhoea activity”, it took a dose of 35 mg/kg to reach the 50% effect level (ED50). Also, the values for the ED (-1 C) in data set [2] (po) and in data set [2] (sc) were 194 mg/kg and 3 mg/kg, respectively.

As for `COC(=O)C1=CCCN(C)C1` [Arecoline], the duration of action entry in data set [3] (in vivo) is on record as “short duration of action”. Moreover, in data set [3] (oral route), the “activity by oral route” value is “very weak activity”. Moreover, the “effect on patients having a memory defect” value in data set [4] was “positive effect”. The EC50 in data set [5] was 0.331 µM.

As for `CON=CC1=CCCN(C)C1` [Example 1, 1-methyl-1,2,5,6-tetrahydropyridin-3-carboxyaldehyde-O-methyloxime hydrochloride], the EC50 in data set [5] (setting [16]) is 0.525 µM. In addition, the 50% effect level in the data set “Diarrhoea activity” (ED50) was put at a dose of 0.6 mg/kg. Also, the values for the ED (-1 C) in data set [2] (setting [17]) and in data set [2] (setting [18]) were 0.14 mg/kg and 0.46 mg/kg, respectively.

On to `CCON=CC1=CCCN(C)C1.Cl` [Example 2, 1-methyl-1,2,5,6-tetrahydropyridin-3-carboxaldehyde-O-ethyloxime hydrochloride], for which, in data set [6], the IC50 is 180 µM. Besides, the EC50 in data set [5] (setting [16]) is over 1000 µM. For the same molecule, the LD50 – broadly, the dose at which mortality reaches 50% – at 168 h in “in vivo” was determined as 250 mg/kg. For the same molecule, it took a dose of 50 mg/kg to reach the 50% effect level in “Diarrhoea activity” (ED50). In addition, the values for the ED (-1 C) in data set [2] (setting [17]) and in data set [2] (setting [18]) were 11 mg/kg and 13 mg/kg, respectively.

With `CON=CC1=CCCNC1.Cl` [Example 3, 1,2,5,6-tetrahydropyridin-3-carboxaldehyde-O-methyloxime Hydrochloride], the “variation of the body temperature” value in data set [1] (setting [7]) was “+0.1 °C”; in data set [1] (setting [8]) it was -1,5 °C; in data set [1] (setting [9]), -0,8 °C; in data set [1] (setting [10]), -0,2 °C; in data set [1] (setting [12]) it was -1,2 °C; in data set [1] (setting [13]) it was -0,8 °C. Further, the “variation of the body temperature” value is -0,2 °C in data set [1] (setting [14]) and -0,1 °C in data set [1] (setting [15]). In data set [5] (setting [16]), the EC50 is 0.263 µM. The molecule further registered an LD50 at 168 h in the data set “in vivo” of 75 mg/kg. The ED50 (usually the dose at which the effect has come halfway, by size or by number of responders) in “Diarrhoea activity” came to 0.15 mg/kg. Moreover, the ED (-1 C) in data set [2] (setting [17]) worked out at 0.12 mg/kg; in data set [2] (setting [18]), 0.11 mg/kg.

Turning to `CC(C)ON=CC1=CCCN(C)C1` [Example 4, O-isopropyl-N-methyl-1,2,5,6-tetrahydropyridin-3-carboxaldehyde oxime hydrochloride], the IC50 in data set [6] amounted to 11 µM. For the same molecule, in data set [5] (setting [16]), the EC50 is over 1000 µM. The same molecule yielded an LD50 at 168 h in the data set “in vivo” of 350 mg/kg. In the data set “Diarrhoea activity”, this molecule yielded an ED50 of over 100 mg/kg. Further, in data set [2] (setting [18]), the ED (-1 C) stood at 40 mg/kg.

On to `CC(=O)ON=CC1=CCCN(C)C1` [Example 5, 1-methyl-1,2,5,6-tetrahydropyridin-3-carboxaldehyde-0-acetyl-oxime], for which, in data set [5] (setting [16]), the EC50 was 51.3 µM. Besides, the LD50 at 168 h in “in vivo” was 500 mg/kg. Besides, the ED50 in “Diarrhoea activity” was over 100 mg/kg. In data set [2] (setting [18]), the ED (-1 C) was determined as 39 mg/kg.

Consider `CN(C)CCON=CC1=CCCN(C)C1` [Example 6, 3-[2-(N,N-dimethylaminoethoxyimino)-methyl]-1-methyl-1,2,5,6-tetrahydropyridine], for which, in data set [5] (setting [16]), the EC50 is 148 µM. The LD50 at 168 h in “in vivo” came out at 750 mg/kg. This molecule yielded an ED50 in “Diarrhoea activity” of over 100 mg/kg. Further, in data set [2] (setting [18]), the ED (-1 C) was 135 mg/kg.

As to `CCN1CCC=C(C=NOC)C1.Cl` [Example 7, 1-ethyl-1,2,5,6-tetrahydro-pyridin-3-carboxaldehyde-O-methyloxime hydrochloride], the “variation of the body temperature” value in data set [1] (setting [8]) is -1,1 °C; in data set [1] (setting [9]), -1,1 °C; in data set [1] (setting [10]), -0,6 °C; in data set [1] (setting [11]), -0,2 °C; in data set [1] (setting [12]), -0,5 °C; in data set [1] (setting [13]) it was -1,0 °C. The “variation of the body temperature” value was -0,6 °C in data set [1] (setting [14]) and -0,1 °C in data set [1] (setting [15]). The IC50 in data set [6] was 200 µM. The EC50 in data set [5] (setting [16]) was over 1000 µM. The ED50 in the data set “Diarrhoea activity” is 10 mg/kg. The ED (-1 C) in data set [2] (setting [17]) was 1.16 mg/kg; in data set [2] (setting [18]) it was 0.97 mg/kg.

Turning to `CCCN1CCC=C(C=NOC)C1` [Example 8], the “variation of the body temperature” value is -1,5 °C in data set [1] (setting [8]); -1,3 °C in data set [1] (setting [9]); -0,4 °C in data set [1] (setting [10]); -0,7 °C in data set [1] (setting [12]); -1,2 °C in data set [1] (setting [13]); -0,2 °C in data set [1] (setting [14]). In addition, in data set [1] (setting [15]), the “variation of the body temperature” value is -0,1 °C. For the same molecule, the EC50 in data set [5] (setting [16]) was 25.1 µM. In “in vivo”, this molecule came in with an LD50 at 168 h of 100 mg/kg. The 50% effect level in “Diarrhoea activity” (ED50) was put at a dose of 1.7 mg/kg. Moreover, the ED (-1 C) in data set [2] (setting [17]) came to 0.83 mg/kg; in data set [2] (setting [18]), 0.34 mg/kg.

As for `CCCCN1CCC=C(C=NOC)C1` [Example 9, 1-butyl-1,2,5,6-tetrahydropyridin-3-carboxaldehyde-O-methyloxime], in data set [6], the IC50 worked out at 230 µM. The EC50 in data set [5] (setting [16]) is over 1000 µM. The molecule further returned an LD50 at 168 h in “in vivo” of 30 mg/kg. Moreover, the ED50 in “Diarrhoea activity” amounted to 3.5 mg/kg. In addition, the ED (-1 C) in data set [2] (setting [17]) was determined as 0.85 mg/kg; in data set [2] (setting [18]), 0.79 mg/kg.

Take `C=CCN1CCC=C(C=NOC)C1` [Example 10, 1-allyl-1,2,5,6-tetrahydropyridin-3-carboxaldehyde-O-methyloxime]: the “variation of the body temperature” value was -0,1 °C in data set [1] (setting [7]); -1,5 °C in data set [1] (setting [8]); -0,7 °C in data set [1] (setting [9]); -0,1 °C in data set [1] (setting [10]); “+0,2 °C” in data set [1] (setting [11]); -0,8 °C in data set [1] (setting [12]). Also, the “variation of the body temperature” value in data set [1] (setting [13]) was -1,0 °C; in data set [1] (setting [14]) it was -0,1 °C; in data set [1] (setting [15]), “+0,1 °C”. Further, in data set [5] (setting [16]), the EC50 is 15.8 µM. This molecule yielded an LD50 at 168 h in the data set “in vivo” of 175 mg/kg. Moreover, in the data set “Diarrhoea activity”, the ED50 is 1.2 mg/kg. Besides, the ED (-1 C) came out at 0.86 mg/kg in data set [2] (setting [17]) and 0.34 mg/kg in data set [2] (setting [18]).

Take `CCCCCN1CCC=C(C=NOC)C1` [Example 11, 1-pentyl-1,2,5,6-tetrahydropyridin-3-carboxaldehyde-O-methyloxime]: the IC50 in data set [6] is 160 µM. In addition, in data set [5] (setting [16]), the EC50 is over 1000 µM. Also, the LD50 at 168 h in “in vivo” came to 175 mg/kg. Moreover, it took a dose of 5 mg/kg to reach the 50% effect level in the data set “Diarrhoea activity” (ED50). In addition, the ED (-1 C) in data set [2] (setting [17]) was 4 mg/kg; in data set [2] (setting [18]), 3 mg/kg.

As to `C#CCON=CC1=CCCN(C)C1` [Example 12, 1-methyl-1,2,5,6-tetrahydropyridin-3-carboxaldehyde-O-propargyloxime], the EC50 in data set [5] (setting [16]) was 0.479 µM. In addition, the LD50 at 168 h in the data set “in vivo” is 60 mg/kg. Also, the ED50 in the data set “Diarrhoea activity” stood at 5.5 mg/kg. In addition, the ED (-1 C) worked out at 0.63 mg/kg in data set [2] (setting [17]) and 2 mg/kg in data set [2] (setting [18]).
